Measured values from US4473578A, “β-Lactam antibiotics and their use” (Beecham Group Limited, priority 1979, dated 1984).
Converted amounts (≈) assume the structure as drawn.

How the values were obtained:
Assay type in all cases: cell-based
[1] = system: Bacteroides fragilis 2118; assay: Antibacterial effectiveness in agar; conditions: Bacteroides fragilis, 2118
Description: (§1) b. Antibacterial effectiveness of the compound of […]

[2] = system: Bacteroides fragilis B3; assay: Antibacterial effectiveness in agar; conditions: Bacteroides fragilis, B3
Description: as §1

[3] = system: Bacteroides fragilis BC16; assay: Antibacterial effectiveness in agar; conditions: Bacteroides fragilis, BC16
Description: as §1

[4] = system: Bacteroides fragilis BC4; assay: Antibacterial effectiveness in agar; conditions: Bacteroides fragilis, BC4
Description: as §1

[5] = system: Bacteroides fragilis VP1 8249; assay: Antibacterial effectiveness in agar; conditions: Bacteroides fragilis, VP18249
Description: as §1

[6] = system: Bacteroides fragilis WS12; assay: Antibacterial effectiveness in agar; conditions: Bacteroides fragilis, WS12
Description: as §1

[7] = system: Bacteroides fragilis WS1; assay: Antibacterial effectiveness in agar; conditions: Bacteroides fragilis, WS1
Description: as §1

[8] = system: Bacteroides fragilis WS41; assay: Antibacterial effectiveness in agar; conditions: Bacteroides fragilis, WS41
Description: as §1

[9] = system: Citrobacter freundii T221; assay: Antibacterial effectiveness in agar; conditions: Citrobacter freundii, T221
Description: as §1

[10] = system: Citrobacter freundii W18; assay: Antibacterial effectiveness in agar; conditions: Citrobacter freundii, W18
Description: as §1

[11] = system: Enterbacter aerogenes NCTC 10006; assay: Antibacterial effectiveness in agar
Description: as §1

[12] = system: Enterbacter aerogenes T660; assay: Antibacterial effectiveness in agar
Description: as §1

[13] = system: Enterobacter cloacea NCTC 10005; assay: Antibacterial effectiveness in agar; conditions: Enterobacter, NCTC10005
Description: as §1

[14] = system: Enterobacter cloacea T749; assay: Antibacterial effectiveness in agar; conditions: Enterobacter, T749
Description: as §1

[15] = system: Escherichia coli 5; assay: Antibacterial effectiveness in agar; conditions: Escherichia coli, 5
Description: as §1

[16] = system: Escherichia coli Ba78R+; assay: Antibacterial effectiveness in agar; conditions: Escherichia coli
Description: as §1

[17] = system: Escherichia coli E8; assay: Antibacterial effectiveness in agar; conditions: Escherichia coli, E8
Description: as §1

[18] = system: Escherichia coli E96R+; assay: Antibacterial effectiveness in agar
Description: as §1

[19] = system: Escherichia coli JT1; assay: Antibacterial effectiveness in agar; conditions: Escherichia coli, JT1
Description: as §1

[20] = system: Escherichia coli JT20R+; assay: Antibacterial effectiveness in agar
Description: as §1

[21] = system: Escherichia coli JT414C+; assay: Antibacterial effectiveness in agar; conditions: Escherichia coli
Description: as §1

[22] = system: Escherichia coli JT425C+; assay: Antibacterial effectiveness in agar; conditions: Escherichia coli
Description: as §1

[23] = system: Escherichia coli JT4R+; assay: Antibacterial effectiveness in agar
Description: as §1

[24] = system: Escherichia coli NCTC 15418; assay: Antibacterial effectiveness in agar; conditions: Escherichia coli, NCTC15418
Description: as §1

[25] = system: Klebsiella aerogenes I281; assay: Antibacterial effectiveness in agar; conditions: Klebsiella aerogenes, I281
Description: as §1

[26] = system: Klebsiella aerogenes R112; assay: Antibacterial effectiveness in agar; conditions: Klebsiella aerogenes, R112
Description: as §1

[27] = system: Klebsiella aerogenes T219; assay: Antibacterial effectiveness in agar; conditions: Klebsiella aerogenes, T219
Description: as §1

[28] = system: Klebsiella aerogenes Va2R+; assay: Antibacterial effectiveness in agar; conditions: Klebsiella aerogenes
Description: as §1

[29] = system: Proteus mirabilis 889; assay: Antibacterial effectiveness in agar; conditions: Proteus mirabilis, 889
Description: as §1

[30] = system: Proteus mirabilis T318; assay: Antibacterial effectiveness in agar; conditions: Proteus mirabilis, T318
Description: as §1

[31] = system: Proteus morganii I; assay: Antibacterial effectiveness in agar; conditions: Morganella morganii
Description: as §1

[32] = system: Proteus morganii T361; assay: Antibacterial effectiveness in agar; conditions: Morganella morganii, T361
Description: as §1

[33] = system: Proteus rettgeri I; assay: Antibacterial effectiveness in agar; conditions: Providencia rettgeri
Description: as §1

[34] = system: Proteus rettgeri R110; assay: Antibacterial effectiveness in agar; conditions: Providencia rettgeri, R110
Description: as §1

[35] = system: Proteus vulgaris NCTC 4395; assay: Antibacterial effectiveness in agar; conditions: Proteus vulgaris, NCTC4395
Description: as §1

[36] = system: Proteus vulgaris X; assay: Antibacterial effectiveness in agar; conditions: Proteus vulgaris
Description: as §1

[37] = system: Pseudomonas aeruginosa Dalgleish; assay: Antibacterial effectiveness in agar; conditions: Pseudomonas aeruginosa
Description: as §1

[38] = system: Pseudomonas aeruginosa NCTC 10662; assay: Antibacterial effectiveness in agar; conditions: Pseudomonas aeruginosa, NCTC10662
Description: as §1

[39] = system: Pseudomonas aeruginosa W975; assay: Antibacterial effectiveness in agar; conditions: Pseudomonas aeruginosa, W975
Description: as §1

[40] = system: Serratia marcescens SM27; assay: Antibacterial effectiveness in agar; conditions: Serratia marcescens, SM27
Description: as §1

[41] = system: Serratia marcescens Wo146; assay: Antibacterial effectiveness in agar; conditions: Serratia marcescens, WO146
Description: as §1

[42] = system: Staphylococcus aureus ATCC 25923; assay: Antibacterial effectiveness in agar; conditions: Staphylococcus aureus, ATCC25923
Description: as §1

[43] = system: Staphylococcus aureus ME9+; assay: Antibacterial effectiveness in agar; conditions: Staphylococcus aureus
Description: as §1

[44] = system: Staphylococcus aureus Smith; assay: Antibacterial effectiveness in agar; conditions: Staphylococcus aureus
Description: as §1

[45] = system: Staphylococcus aureus T150+; assay: Antibacterial effectiveness in agar; conditions: Staphylococcus aureus
Description: as §1

[46] = system: Staphylococcus aureus T67+; assay: Antibacterial effectiveness in agar; conditions: Staphylococcus aureus
Description: as §1

[47] = system: Streptococcus faecalis C90; assay: Antibacterial effectiveness in agar; conditions: Enterococcus faecalis, C90
Description: as §1

[48] = system: Streptococcus faecalis T1101; assay: Antibacterial effectiveness in agar; conditions: Enterococcus faecalis, T1101
Description: as §1

[49] = system: Bacillus subtilis A; assay: MIC in agar; conditions: in agar; Bacillus subtilis A; read-out: M.I.C.
Description: (§2) a. Antibacterial effectiveness of compounds of
(§3) Examples 6 and 7 in agar.
(§4) (μg/ml) in agar of compound

[50] = system: Citrobacter freundii E8; assay: MIC in agar; conditions: in agar; Citrobacter freundii E8; read-out: M.I.C.
Description: as §2, §3, §4

[51] = system: Enterobacter cloacae N1; assay: MIC in agar; conditions: in agar; Enterobacter cloacae N1; read-out: M.I.C.
Description: as §2, §3, §4

[52] = system: Escherichia coli 0111; assay: MIC in agar
Description: as §2, §3, §4

[53] = system: Escherichia coli JT39; assay: MIC in agar; conditions: Escherichia coli, JT39
Description: as §2, §3, §4

[54] = system: Klebsiella aerogenes A; assay: MIC in agar; conditions: in agar; Klebsiella aerogenes A; read-out: M.I.C.
Description: as §2, §3, §4

[55] = system: Proteus mirabilis C977; assay: MIC in agar; conditions: in agar; Proteus mirabilis C977; read-out: M.I.C.
Description: as §2, §3, §4

[56] = system: Proteus rettgeri WM16; assay: MIC in agar; conditions: Providencia rettgeri; in agar; Proteus rettgeri WM16; read-out: M.I.C.
Description: as §2, §3, §4

[57] = system: Proteus vulgaris W091; assay: MIC in agar; conditions: in agar; Proteus vulgaris W091; read-out: M.I.C.
Description: as §2, §3, §4

[58] = system: Pseudomonas aeruginosa A; assay: MIC in agar; conditions: in agar; Pseudomonas aeruginosa A; read-out: M.I.C.
Description: as §2, §3, §4

[59] = system: Salmonella typhimurium CT10; assay: MIC in agar; conditions: Salmonella enterica; in agar; Salmonella typhimurium CT10; read-out: M.I.C.
Description: as §2, §3, §4

[60] = system: Serratia marcescens US20; assay: MIC in agar; conditions: in agar; Serratia marcescens US20; read-out: M.I.C.
Description: as §2, §3, §4

[61] = system: Shigella sonnei MB 11967; assay: MIC in agar; conditions: MB11967
Description: as §2, §3, §4

[62] = system: Staphylococcus aureus 1517; assay: MIC in agar; conditions: in agar; Staphylococcus aureus 1517; read-out: M.I.C.
Description: as §2, §3, §4

[63] = system: Staphylococcus aureus Oxford; assay: MIC in agar; conditions: in agar; Staphylococcus aureus Oxford; read-out: M.I.C.
Description: as §2, §3, §4

[64] = system: Streptococcus faecalis I; assay: MIC in agar; conditions: Enterococcus faecalis; in agar; Streptococcus faecalis I; read-out: M.I.C.
Description: as §2, §3, §4

[65] = system: Streptococcus pneumoniae CN33; assay: MIC in agar
Description: as §2, §3, §4

[66] = system: Streptococcus pyogenes CN10; assay: MIC in agar; conditions: in agar; Streptococcus pyogenes CN10; read-out: M.I.C.
Description: as §2, §3, §4

[67] = system: E. coli ESS; assay: MIC in agar; conditions: Escherichia coli
Description: | (μg/ml) in agar of compound

CCSC1=C(C(=O)[O-])N2C(=O)[C@@H]([C@H](C)OS(=O)(=O)[O-])[C@H]2C1.[Na+].[Na+] [Example 14, Disodium (5R,6R)-3-ethylthio-6-[(S)-1-sulphonato-oxyethyl]-7-oxo-1-azabicyclo[3.2.0]hept-2-ene-2-carboxylate]
MIC [1]: 0.2 µg/mL | MIC [2]: 0.4 µg/mL | MIC [3]: 1.6 µg/mL | MIC [4]: 0.8 µg/mL | MIC [5]: 0.4 µg/mL | MIC [6]: 0.2 µg/mL | MIC [7]: 6.2 µg/mL | MIC [8]: 0.2 µg/mL | MIC [9]: 1.6 µg/mL | MIC [10]: 1.6 µg/mL | MIC [11]: 0.4 µg/mL | MIC [12]: 0.2 µg/mL | MIC [13]: 6.2 µg/mL | MIC [14]: 6.2 µg/mL | MIC [15]: ≤ 0.1 µg/mL | MIC [16]: 0.2 µg/mL | MIC [17]: ≤ 0.1 µg/mL | MIC [18]: ≤ 0.1 µg/mL | MIC [19]: ≤ 0.1 µg/mL | MIC [20]: 0.8 µg/mL | MIC [21]: 0.2 µg/mL | MIC [22]: ≤ 0.1 µg/mL | MIC [23]: 0.4 µg/mL | MIC [24]: ≤ 0.1 µg/mL | MIC [25]: ≤ 0.1 µg/mL | MIC [26]: ≤ 0.1 µg/mL | MIC [27]: ≤ 0.1 µg/mL | MIC [28]: 0.8 µg/mL | MIC [29]: 0.8 µg/mL | MIC [30]: 0.4 µg/mL | MIC [31]: 0.4 µg/mL | MIC [32]: 0.4 µg/mL | MIC [33]: 0.4 µg/mL | MIC [34]: 0.2 µg/mL | MIC [35]: 0.2 µg/mL | MIC [36]: 0.4 µg/mL | MIC [37]: 50 µg/mL | MIC [38]: 50 µg/mL | MIC [39]: 100 µg/mL | MIC [40]: 0.4 µg/mL | MIC [41]: 1.6 µg/mL | MIC [42]: 0.4 µg/mL | MIC [43]: 1.6 µg/mL | MIC [44]: 0.4 µg/mL | MIC [45]: 0.4 µg/mL | MIC [46]: 0.8 µg/mL | MIC [47]: 12.5 µg/mL | MIC [48]: 12.5 µg/mL

C[C@H](O)[C@@H]1C(=O)N2C(C(=O)O)=C(S/C=C\C(=O)OCCN)C[C@H]12 [Example 20, (5R,6R)-3-[2-(Z)-(2-Aminoethoxycarbonyl)ethenylthio]-6-[(S)-1-hydroxyethyl]-7-oxo-1-azabicyclo[3.2.0]hept-2-ene-2-carboxylic acid]
MIC [49]: ≤ 0.1 µg/mL | MIC [50]: 0.2 µg/mL (≈ 0.584 µM) | MIC [51]: 0.2 µg/mL (≈ 0.584 µM) | MIC [52]: ≤ 0.1 µg/mL | MIC [53]: 0.2 µg/mL (≈ 0.584 µM) | MIC [54]: ≤ 0.1 µg/mL | MIC [55]: 0.4 µg/mL (≈ 1.17 µM) | MIC [56]: 0.2 µg/mL (≈ 0.584 µM) | MIC [57]: 0.4 µg/mL (≈ 1.17 µM) | MIC [58]: 25 µg/mL (≈ 73 µM) | MIC [59]: ≤ 0.1 µg/mL | MIC [60]: ≤ 0.1 µg/mL | MIC [61]: 0.2 µg/mL (≈ 0.584 µM) | MIC [62]: 0.2 µg/mL (≈ 0.584 µM) | MIC [63]: ≤ 0.1 µg/mL | MIC [64]: ≤ 0.1 µg/mL | MIC [65]: ≤ 0.1 µg/mL | MIC [66]: ≤ 0.1 µg/mL | MIC [67]: ≤ 0.1 µg/mL
